# Experimental data: US4816487A, “1-(2-hydroxyaryl)-alkane-1-on-oximes-procedure of preparation and use in pharmaceuticals” (Humboldt-Universitaet zu Berlin, priority 1985, dated 1989)
# Key:
# [1] = biological target: T1, lipoxygenase from rabbit reticulocytes (Oryctolagus cuniculus, UniProt P12530); test: inhibition of activity of lipoxygenase from rabbit reticulocytes; format: biochemical; conditions: for inhibition of rabbit reticulocyte lipoxygenase by known lipoxygenase inhibitors: concentration not given; for effect on reticulocyte lipoxygenase: ultimate concentration 1 mM; for IC50: Table 3, in parentheses, read-out: I50-value, lipoxygenase from reticulocytes; for inhibition at 1000 µM: ultimate concentration 1.0 mM
# T1 construct: Lipoxygenase from rabbit reticulocytes was obtained in electrophoretically and immunologically pure form; from tissue; host or cells: rabbit reticulocytes
# T1 sequence (P12530 1-663): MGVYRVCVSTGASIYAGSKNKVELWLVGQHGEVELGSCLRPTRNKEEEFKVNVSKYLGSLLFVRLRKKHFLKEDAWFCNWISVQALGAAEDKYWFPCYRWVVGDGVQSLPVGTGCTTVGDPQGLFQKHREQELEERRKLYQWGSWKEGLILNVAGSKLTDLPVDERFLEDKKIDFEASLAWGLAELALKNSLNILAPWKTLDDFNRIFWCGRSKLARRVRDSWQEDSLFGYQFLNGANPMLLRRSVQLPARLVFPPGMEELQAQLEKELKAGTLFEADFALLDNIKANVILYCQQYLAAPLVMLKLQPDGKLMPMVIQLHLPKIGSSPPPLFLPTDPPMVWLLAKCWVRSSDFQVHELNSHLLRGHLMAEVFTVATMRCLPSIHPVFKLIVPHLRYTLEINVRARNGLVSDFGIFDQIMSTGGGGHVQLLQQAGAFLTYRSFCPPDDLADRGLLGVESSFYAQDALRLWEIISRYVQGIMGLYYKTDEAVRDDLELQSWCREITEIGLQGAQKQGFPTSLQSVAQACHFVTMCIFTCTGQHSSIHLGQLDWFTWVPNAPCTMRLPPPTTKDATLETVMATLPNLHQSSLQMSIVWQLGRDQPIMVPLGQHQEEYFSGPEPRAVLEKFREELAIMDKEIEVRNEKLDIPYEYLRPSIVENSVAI
# Procedure: (§1) Persuasive evidence to inhibition of lipoxygenase was produced by a suitable animal lipoxygenase which had been isolated from rabbit reticulocytes, using a method by Rapoport and coworkers /S. M. Rapoport et al., Eur. J. Biochem. 96, 545 (1979)/. A final concentration of 1 mM of most of the compounds, according to this invention, produced inhibition of 90 percent or more (cf. Example 20). Significant inhibition was even recordable from a final concentration of 0.1 mM of some of the compounds, according to this invention. Substance concentrations were varied to determine the titration curves of inhibition and from these the half-inhibition concentrations (I50 -values). A half-inhibition concentration of 7 μM was established for 5-methyl-2-hydroxy-laurophenone-oxime, an oxime of high anti-asthmatic effectiveness.
# Inhibition of activity of lipoxygenase from rabbit reticulocytes:
# (§2) Lipoxygenase from rabbit reticulocytes was obtained in electrophoretically and immunologically pure form by means of the method described in the literature /S. M. Rapoport et al., Eur. J. Biochem. 96, 545 (1979)/. Lipoxygenase activity was determined at 25° C. by amperometric measurement of oxygen consumption by means of a Clark electrode in the following system: 0.1M potassium phosphate, pH 7.4, with 0.2-per-cent sodium cholate and 0.53 mM linoleic acid. The enzyme concentration was […] in the sample for measurement. The substances submitted for testing were dissolved in methyl glycol (fresh distillation in vacuum) and pre-incubated ten minutes with the enzyme at measurement temperature and in the absence of sodium cholate and linoleic acid. […] No remarkable inhibition occurred to control samples under these conditions. Enzyme reaction was started by addition of sodium cholate and linoleic acid. The titration curve of inhibition and, consequently, the concentrations required for inhibition by the order of 50 per cent were determined by variation of active substance concentrations. For comparison, the compounds were tested also on commercial lipoxygenase-1 from soybean.
# sensitised guinea pig = conditions: cited: C. Armour and D. M. Temple, Agents Action 12, 285 (1982); cited from earlier work
# [2] = biological target: T2, lipoxygenase-1 from soybean (Glycine max, UniProt P08170); test: inhibition of soybean lipoxygenase-1; format: biochemical; conditions: read-out: Inhibition (percent) of lipoxygenase from soybean; for inhibition at 1000 µM: ultimate concentration 1.0 mM
# T2 construct: purchased
# T2 sequence (P08170 1-839): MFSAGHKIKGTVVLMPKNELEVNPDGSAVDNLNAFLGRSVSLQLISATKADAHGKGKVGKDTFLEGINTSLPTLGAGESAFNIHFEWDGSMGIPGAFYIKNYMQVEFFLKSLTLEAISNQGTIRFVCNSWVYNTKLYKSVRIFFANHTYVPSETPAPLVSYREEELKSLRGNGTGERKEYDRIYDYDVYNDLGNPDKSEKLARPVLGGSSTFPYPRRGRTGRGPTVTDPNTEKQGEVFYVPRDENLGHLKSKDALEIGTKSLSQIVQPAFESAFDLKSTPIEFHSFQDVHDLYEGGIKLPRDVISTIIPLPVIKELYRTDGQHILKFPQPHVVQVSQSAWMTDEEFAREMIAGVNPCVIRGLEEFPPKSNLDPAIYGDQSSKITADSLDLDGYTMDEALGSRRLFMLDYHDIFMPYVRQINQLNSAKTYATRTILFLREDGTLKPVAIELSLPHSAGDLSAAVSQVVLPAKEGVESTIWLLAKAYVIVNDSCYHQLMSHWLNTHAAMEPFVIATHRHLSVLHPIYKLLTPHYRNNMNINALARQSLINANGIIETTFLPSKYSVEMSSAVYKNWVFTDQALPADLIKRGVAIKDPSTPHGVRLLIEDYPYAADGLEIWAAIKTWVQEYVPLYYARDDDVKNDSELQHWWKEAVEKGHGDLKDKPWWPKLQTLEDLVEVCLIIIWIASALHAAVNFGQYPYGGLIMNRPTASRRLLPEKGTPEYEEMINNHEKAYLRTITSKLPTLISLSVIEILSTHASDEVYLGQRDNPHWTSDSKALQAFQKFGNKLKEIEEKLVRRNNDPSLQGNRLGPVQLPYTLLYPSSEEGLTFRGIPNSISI
# Procedure: as §1, §2
# thrombocyte aggregation = test: inhibition of thrombocyte aggregation induced by arachidonic acid or platelet activation factor; format: cell-based, man
# Procedure: Since inhibition of lipoxygenase was identified as molecular point of attack of these new medicaments, studies were conducted also into their action upon thrombocyte aggregation. The substantive role played by the lipoxygenase route in the irreversibility of thrombocyte aggregation is well established at present/C. E. Dutilh et al., Prostaglandins and Medicine 6, 111 (1981)/. A key role in the pathogenesis of thrombotic diseases is attributed to irreversibility of thrombocyte aggregation. […] In the experiments conducted for this invention, thrombocyte aggregation was triggered off either by arachidonic acid or by the platelet activation factor (PAF-acether).
# Inhibition of thrombocyte aggregation induced by arachidonic acid or the platelet activation factor:
# The compounds were tested for antithrombotic and thrombolytic activity in vitro on the authentic cell system of man. High-thrombocyte plasma was obtained from the blood of clinically healthy donors by 1000×g centrifugation. Thrombocyte aggregation was measured by means of an aggregometer on the basis of diffuse scatter of light or absorption of light by resulting cell aggregates. The high-thrombocyte plasma was pre-incubated with the active substances at 37° C. for three minutes. Thrombocyte aggregation was then triggered off by alternative addition of 0.8 mM of arachidonic acid or 1 μM of platelet activation factor (PAF acether). […]
# [3] = read-out: Inhibition (percent) of lipoxygenase from reticulocytes
smiles,measurement,setting,value
"O=[N+]([O-])c1ccc(O)c(O)c1 [4-nitrocatechol, reference compound]",inhibition of rabbit reticulocyte lipoxygenase by known lipoxygenase inhibitors,[1],inhibited with high effectiveness
"CN1CCC(=C2c3ccccc3CC(=O)c3sccc32)CC1 [ketotifen, reference compound]","comparable anti-asthmatic, anti-allergic, and anti-anaphylactic effects on a whole-animal model",sensitised guinea pig,have not even been known
same,effect on reticulocyte lipoxygenase,[1],failed to have an effect
"CC(Cc1ccc(O)c(O)c1)C(C)Cc1ccc(O)c(O)c1 (centres unmarked) [nordihydroguaiaretic acid, reference compound]",inhibition of rabbit reticulocyte lipoxygenase by known lipoxygenase inhibitors,[1],inhibited with high effectiveness
CCCCCCOc1ccc(C(C)=NO)c(O)c1 [4-hexyloxy-2-hydroxy-acetophenone-oxime],inhibition at 1000 µM,[2],68%
same,IC50,[1],260 µM
same,inhibition at 1000 µM,[1]; [3],100%
same,retardation of thrombocyte aggregation,thrombocyte aggregation; 44 μM,retarded aggregation by about two minutes
same,inhibition of thrombocyte aggregation,thrombocyte aggregation; 60 μM,total inhibition
"CCCCCCCCC#CCC#CCC#CCCCC(=O)O [5,8,11-eicosatriynoic acid, reference compound]",inhibition of rabbit reticulocyte lipoxygenase by known lipoxygenase inhibitors,[1],inhibited with high effectiveness
CCCCCCCCCCCCCCCCOc1ccc(C(C)=NO)c(O)c1 [4-hexadecyloxy-2-hydroxy-acetophenone-oxime],inhibition at 500 µM,[2]; ultimate concentration 0.5 mM,38%
same,IC50,[1],500 µM
same,inhibition at 500 µM,"[1]; ultimate concentration 0.5 mM, read-out: Inhibition (percent) of lipoxygenase from reticulocytes",75%
"CCCCCC#CCC#CCC#CCC#CCCCC(=O)O [5,8,11,14-eicosa-tetraynoic acid, reference compound]",inhibition of rabbit reticulocyte lipoxygenase by known lipoxygenase inhibitors,[1],inhibited with high effectiveness
"COc1ccc(O)c(C(C)(C)C)c1 [3-tert.-butyl-4-hydroxy-anisol, reference compound]",inhibition of rabbit reticulocyte lipoxygenase by known lipoxygenase inhibitors,[1],inhibited with high effectiveness
CCCCCC(=NO)c1cc(Cl)ccc1O [5-chloro-2-hydroxy-caprophenone-oxime],inhibition at 1000 µM,[2],24%
same,IC50,[1],300 µM
same,inhibition at 1000 µM,[1]; [3],90%
"O=C(O)c1cc(=O)c2c(OCC(O)COc3cccc4oc(C(=O)O)cc(=O)c34)cccc2o1 [disodium-cromoglycate, reference compound]","comparable anti-asthmatic, anti-allergic, and anti-anaphylactic effects on a whole-animal model",sensitised guinea pig,have not even been known
same,effect on reticulocyte lipoxygenase,[1],failed to have an effect
